Results on twelve compounds are retold here after EP0684766B1, “HERBICIDAL COMPOSITIONS” (Hoechst Schering AgrEvo GmbH, priority 1993, dated 1994).

Test [1] has as its system Galium aparine. Description: Post-emergent field test on winter cereals, % control of weeds. The following applies: for % Control GALAP: post-emergent.
Protocol: (§1) The Examples are field tests carried out post-emergently in the Autumn on winter cereals. The compositions are evenly applied to the plants as suspensions using a water amount of 500 litres per hectare. […] The evaluation of the individual components (a) and (b) as well as their mixtures was carried out on a scale where 0 is no damage and 100 is complete destruction of the plants.
In test [2] the test system is Stellaria media. Described as above. The settings on record: for % Control STEME: post-emergent.
Protocol: as §1
Test [3] concerns Matricaria chamomilla. Described as above. The following applies: for % Control MATCH: post-emergent.
Protocol: as §1
The test system of test [4] is Viola arvensis. The test is described as above. The following applies: for % Control VIOLA: post-emergent.
Protocol: as §1
The test system of test [5] is plants. Nature of the test: Herbicidal activity of the phosphonate applied on its own. The class given is in vivo.
Where [6] appears, read: Galium aparine, post-emergence, 720 h, read-out: % Control GALAP.
[7] abbreviates: Stellaria media, post-emergence, 720 h, read-out: % Control STEME.
The mark [8] stands for this setting: Matricaria chamomilla, post-emergence, 720 h, read-out: % Control MATCH.
Where [9] appears, read: Viola arvensis, post-emergence, 720 h, read-out: % Control VIOLA.
The mark [10] stands for this setting: 10 g ai/ha, evaluation 15 days after application.
[11] abbreviates: Galium aparine, post-emergence, 360 h, read-out: % Control GALAP.
Setting [12] is: Stellaria media, post-emergence, 360 h, read-out: % Control STEME.
Setting [13] is: Matricaria chamomilla, post-emergence, 360 h, read-out: % Control MATCH.
[14] abbreviates: Viola arvensis, post-emergence, 360 h, read-out: % Control VIOLA.
Setting [15] is: 24 g ai/ha, evaluation 15 days after application.
The mark [16] stands for this setting: 48 g ai/ha, evaluation 15 days after application.
The mark [17] stands for this setting: 48 g ai/ha, evaluation 30 days after application.
Where [18] appears, read: 95 g ai/ha, evaluation 15 days after application.
The mark [19] stands for this setting: 15 g ai/ha, evaluation 30 days after application.

As for `Cc1ccc(NC(=O)N(C)C)cc1Cl` [(b7), chlorotoluron], the pest or weed control at 750 g/ha in test [1] (setting [6]) is 15%; in test [2] (setting [7]), 85%; in test [3] (setting [8]) it was 88%; in test [4] (setting [9]), 23%.

In the case of `CC(C)c1ccc(NC(=O)N(C)C)cc1` [(b6), isoproturon], the pest or weed control at 750 g/ha in test [1] (setting [6]) is 13%; in test [2] (setting [7]) it was 55%; in test [3] (setting [8]), 83%; in test [4] (setting [9]), 30%.

Regarding `C#CCN1C(=O)COc2cc(F)c(N=c3snc4n3CC(C)(C)C4)cc21` [(b1), 6-(6,7-dihydro-6,6-dimethyl-3H,5H-pyrrolo[2,1-c][1,2,4]thiadiazol-3-ylidenimino)-7-fluoro-4-(2-propynyl)-2H-1,4-benzoxazin-3(4H)-one], the “% Control GALAP” value in test [1] (setting [10]) is 47%. In test [2] (setting [10]), the “% Control STEME” value is on record as 70%. Besides, the “% Control MATCH” value in test [3] (setting [10]) is 50%.

As for `COc1nc(C)nc(=NC(=O)NS(=O)(=O)c2ccccc2C(=O)O)[nH]1` [metsulfuron], the pest or weed control at 3 g/ha was 10% in test [1] (setting [6]), 96% in test [2] (setting [7]), 97% in test [3] (setting [8]) and 50% in test [4] (setting [9]).

On to `C#CCN1C(=O)COc2cc(F)c(N3C(=O)C4CCCCN4C3=O)cc21` (stereo not shown) [(b2), 2-[7-fluoro-3-oxo-4-(2-propynyl)-3,4-dihydro-2H-1,4-benzoxazin-6-yl]perhydroimidazo[1,5-a]pyridine-1,3-dione], for which the pest or weed control at 15 g/ha in test [1] (setting [11]) was determined as 35%; in test [2] (setting [12]), 27%; in test [3] (setting [13]), 90%; in test [4] (setting [14]) it was 37%.

`CCc1nc2c(Cl)cc(F)c(N3C(=O)C4=C(CCCC4)C3=O)c2s1` [(b3), N-(4-chloro-2-ethyl-6-fluorobenzothiazol-7-yl)-1-cyclohexene-1,2-dicarboximide]: the pest or weed control at 15 g/ha in test [1] (setting [11]) was determined as 33%; in test [2] (setting [12]), 20%; in test [3] (setting [13]), 99%; in test [4] (setting [14]), 83%.

On to `CCCCC(CC)COP(=O)(CC(CC)CCCC)OCC(CC)CCCC` (stereo not shown) [(a), O,O-bis(2-ethylhexyl)(2-ethylhexyl)phosphonate], for which the “% Control GALAP” value in test [1] (setting [15]), in test [1] (setting [16]), in test [1] (setting [17]) and in test [1] (setting [18]) was 0% each time. Moreover, the “% Control STEME” value in test [2] (setting [15]), in test [2] (setting [16]), in test [2] (setting [17]) and in test [2] (setting [18]) was 0% throughout. In addition, the “% Control MATCH” value in test [3] (setting [15]), in test [3] (setting [16]), in test [3] (setting [17]) and in test [3] (setting [18]) was 0% in each case. For the same compound, the “% Control VIOLA” value in test [4] (setting [16]), in test [4] (setting [17]) and in test [4] (setting [18]) was 0% in each case. In addition, the herbicidal activity entry in test [5] was “no herbicidal activity”.

With `CCOC(=O)Cn1c(=O)sc2cccc(Cl)c21` [(b8), benazolin-ethyl], the pest or weed control at 200 g/ha worked out at 18% in test [1] (setting [6]), 88% in test [2] (setting [7]) and 22% in test [4] (setting [9]).

Take `O=C(O)CNCP(=O)(O)O` [(b9), glyphosate]: the pest or weed control at 50 g/ha came out at 20% in test [1] (setting [6]), 25% in test [2] (setting [7]), 28% in test [3] (setting [8]) and 10% in test [4] (setting [9]).

`COC(=O)c1cc(Oc2ccc(Cl)cc2Cl)ccc1[N+](=O)[O-]` [bifenox]: the pest or weed control at 500 g/ha in test [1] (setting [11]) was 78%; in test [2] (setting [12]), 15%; in test [3] (setting [13]), 63%; in test [4] (setting [14]), 95%.

Regarding `COC(=O)c1ccccc1S(=O)(=O)NC(=O)N(C)c1nc(C)nc(OC)n1`, the “% Control GALAP” value in test [1] (setting [19]) is 47%. Further, in test [2] (setting [19]), the “% Control STEME” value came out at 78%. In addition, in test [3] (setting [19]), the “% Control MATCH” value stood at 88%. For the same compound, the “% Control VIOLA” value in test [4] (setting [19]) stood at 40%.

For `COc1cc(OC)nc(NC(=O)NS(=O)(=O)N(C)S(C)(=O)=O)n1` [(b4), 3-[4,6-dimethoxypyrimidin-2-yl)-1-(N-methyl-N-methylsulfonyl-aminosulfonyl)urea], the pest or weed control at 12 g/ha turned out to be 42% in test [1] (setting [6]), 40% in test [2] (setting [7]), 55% in test [3] (setting [8]) and 20% in test [4] (setting [9]).
